Measurements reported in US20030157197A1, “PLANT-DERIVED ANTI-PARASITIC AND ANTIFUNGAL COMPOUNDS AND METHODS OF EXTRACTING THE COMPOUNDS” (priority 1998, published 2003).
≈ marks a conversion by molar mass, not a printed value. Like-named read-outs stand apart in the source and are kept apart here. Each block holds one compound with its values, some of them ahead of it.

Assays:
Enterocytozoon cuniculi = system: Enterocytozoon cuniculi; set-up: dose or concentration left out as unconfirmed; conditions: cited from earlier work
RK13 cells = system: RK13 cells; set-up: dose or concentration left out as unconfirmed; conditions: cited from earlier work
[1] = system: Plasmodium falciparum Indochina (W-2) clone; assay: in vitro antimalarial assay, [3H]hypoxanthine uptake, W-2 clone; type: cell-based; conditions: chloroquine-resistant
Procedure: (§1) The in vitro antimalarial assays were performed by using a modification of the semi-automated microdilution technique described earlier (Desjardins et al., 1979, Milhous et al., 1985). Two Plasmodium falciparum malaria parasite clones, designated Indochina (W-2) and Sierra Leone (D-6), were utilized in susceptibility testing. The W-2 clone is resistant to chloroquine, pyrimethamine, sulfadoxine, and quinine, and the D-6 clone is resistant to mefloquine.
(§2) The test extracts/compound, was dissolved in DMSO and serially diluted using malarial growth medium. Drug-induced reduction in uptake of titriated hypoxanthine was used as an index of inhibition of parasite growth.

Cladosporium cucumerinum = assay: TLC bioautographic antifungal test; type: cell-based; conditions: TLC plate sprayed with spore suspension
Procedure: A method similar to that of Homans and Fuchs (1970) was employed. This technique involves direct spraying of thin layer chromatograms with conidial suspensions of a test organism. About 100 μg of extract was spotted on silica gel TLC plates and developed with suitable solvent system. Dried plates were separately sprayed with either a spore suspension of Cladosporium cucumerinum, and subsequent plates with spore suspensions of Cladosporium carrionii, Cladosporium cladosporioides, Cladosporium tennuisimum (ATCC 623337) and Fonsecaea pedrosoi (ATCC 52593), in some cases to determine the spectrum of activity. The plates were then incubated in sealed humid chambers at room temperature for four days in the dark. […] The powdered rhizome of A. danellii (200 g)was continously extracted with petroleum ether (bp 40-60° C.) to exhaustion in as soxhlet extractor. The petroleum ether extracts when combined and concentrated to dryness in vacuo gave a reddish brown residue (11.41 g). The air dried marc from the above extract was again extracted with ethanol in a soxhlet extractor, extracts were concentrated to dryness under reduce pressure using the rotary evaporator at 40° C. Both extracts were tested for antifungal activity using bioautography (TLC-bioassay) as described above. […]

[2] = system: Leishmania (Leishmania) chagasi, MHOM/BR/84/BA-13 promastigotes; assay: in vitro radiorespirometric microtest (RAM), antileishmanial; type: cell-based; conditions: for respiration / metabolic rate for 14C-substrates: 50 μg/ml for 96 h, versus vehicle control
Procedure: An in vitro radiorespirometric microtest (RAM) technique was used to evaluate the extracts/fractions or pure compounds for possible antileishmanial activity. This method, as already noted, relies on drug inhibition of parasite production of ^14CO2 from a battery of ^14C-substrates by promastigotes to detect drug-mediated parasite damage at low drug concentration within a short time. The test is quantitative, rapid, consistent, and is conducted in serum-free medium in which prior adaptation is not necessary to cultivate the so-called “difficult to grow” species.
A clinical isolate of visceral Leishmania (Leishmania) chagasi, MHOM/BR/84/BA-13, was used for this study. This isolate was selected because sensitivity to SbV was previously determined using RAM.
All ^14C-substrates were selected with specific activities as close to 40 mCi mM^−1 per carbon atom as obtainable from commercial sources.
The procedure was conducted as previously described (Jackson et al., 1989, 1990). Promastigotes were maintained in log phase growth for 3 successive transfers (48-72 h apart) prior to radiorespirometric (RAM) testing. Test samples (or PBSS, 0.1 M phosphate-buffered balanced salt solution, plus drug solvent, DMSO, for parallel control cultures) was added 24 h after the third promastigote transfer to fresh growth medium. Incubation in the presence of plant samples was continued for 96 additional hours while the parasites remained in mid-log phase growth. The test sample was tested at 50 μg ml^−1. Drug sensitivity or resistance was based on ^14C-substrate(s) (listed in Table 1) for which ^14CO2 release was decreased for drug-treated parasites compared to parallel tests of phosphate-buffered balanced salt solution and vehicle (PBSS+DMSO) controls. Each experiment consisted of parallel: (a) duplicate tests of drug-treated parasites; plus (b) duplicate tests of drug vehicle control-treated parasites; plus (c) one “nonbiological” sterility control. The nonbiological control consisted of each ^14C-substrate (one substrate per microtiter tray well), and PBSS (the same PBSS batch used to wash, to suspend the parasites, and to make drug solution). Since there were no parasites in the nonbiological control, any ^14CO2 detected was attributed either to biologic contamination (or, less likely, chemical contamination) of the ^14C-substrates resulting in breakdown of the ^14C-substrates. If radioactivity above background (10 dpm) was detected in the nonbiological control, the suspect solution(s) was replaced and the experiment was repeated.

[3] = system: Plasmodium falciparum Sierra Leone (D-6) clone; assay: in vitro antimalarial assay, [3H]hypoxanthine uptake, D-6 clone; type: cell-based; conditions: chloroquine-susceptible
Procedure: as §1, §2

[4] = human; cited from earlier work
[5] = system: Trypanosoma brucei brucei Lab 110 EATRO and Trypanosoma brucei rhodesiense KETRI 243, 269, 243 As-10-3; assay: in vitro trypanosome screen, bloodstream trypomastigotes; type: cell-based; conditions: for IC50: Trypanosoma brucei, RHODESIENSE; for fold increase in activity: versus primary extract / related species
Procedure: The in vitro activity of 39 plant extracts was tested against four strains of animal or human-pathogenic African trypanosomes, and three strains of mammalian-pathogenic Trichomonas spp. The trypanosomes studied were Trypanosoma brucei brucei Lab 110 EATRO, which is pathogenic to cattle and other livestock, and several strains of Trypanosoma brucei rhodesiense, a parasite of humans, domestic and wild animals. Strains of T. b. rhodesiense included drug resistant clinical isolates KETRI 243 and 269 and KETRI 243 As-10-3, a highly melarsen- and diamidine-resistant clone of KETRI 243. The 39 extracts were tested in an in vitro screen using a semi-defined medium for growth of bloodstream trypomastigotes at 37° C. (Hirumi & Hirumi, 1989) to determine IC50 values (Bacchi et al., 1996). Of these, 10 had IC50values at or below 10 μg/ml and were considered sufficiently active to warrant testing of more purified extracts. Of the four secondary extracts supplied, one, aulacocarpin (III) (SU1460), derived from the primary extract SU787 of A. aulocacarpus featured a 10-15 fold increase in activity. […] Eight additional primary extracts were also tested in the trypanosome screen (Table 3). […] Aulocacarpin (III) is an extract from Aframonum aulocacarpus and has the following formula: [drawing 3]

[6] = Plasmodium falciparum, read-out: IC50
[7] = previously determined using RAM

Compound: CCNCCCNCCCNCCCNCC [1,11-diethylnorspermine]
effect on parasite culture (Enterocytozoon cuniculi): sterilize the culture
toxicity to feeder layer RK13 cells (RK13 cells): without toxicity

Compound: CCNCCCCNCCCCNCCCCNCCCCNCC [1,19-bis(ethylamino)5,10,15-triazanonadecane]
effect on parasite culture (Enterocytozoon cuniculi): sterilize the culture
toxicity to feeder layer RK13 cells (RK13 cells): without toxicity

Compound: C=C1CC[C@H]2C(C)(C)CCC[C@]2(C)[C@H]1C/C=C(/C=O)CC=O [Labda-8(17),12-diene-15,16-dial, labda-8(17),12-diene-15,16-dial]
IC50 [1]: 0.28018 mg/L (≈ 0.926 µM)
lowest concentration giving a clearly visible inhibition zone (Cladosporium cucumerinum): 0.5 µg
concentration inhibiting Leishmania promastigotes [2]: ≤ 50 µg
inhibition of growth of the leishmania strain ([2]; 50 μg/ml): completely inhibited
respiration / metabolic rate for 14C-substrates [2]: markedly reduced respiration
respiration / metabolic rate for 14C-substrates ([2]; listed as labdane-dial): near zero
parasite viability in culture ([2]; after a 96 hr incubation): no live parasites were observed
IC50 [3]: 0.09666 mg/L (≈ 0.32 µM)

Compound: Nc1nc(N)nc(Nc2ccc([As]3SCC(CO)S3)cc2)n1 (stereo not shown) [Melarsoprol, melarsoprol]
incidence of cerebral episodes [4]: 3-5%

Compound: COC(=O)C(CC[C@H]1C2(CCC3C(C)(C)[C@@H](O)CC[C@@]31C)CO2)C1CO1 (stereo partly shown) [SU1460, aulacocarpin]
IC50 [5]: 0.86 mg/L (≈ 2.35 µM)
fold increase in activity [5]: 10-15 fold

IC50 [1, 6]: 0.17 mg/L (≈ 0.594 µM)
IC50 [3, 6]: 0.124 mg/L (≈ 0.433 µM)
Compound: COc1cc(O)c2c(c1)O[C@H](c1ccc(O)cc1)CC2=O [Sakuranetin]
antileishmanial activity ([2]; in vitro): strongest antileishmanial activity

Compound: CC1(C)CCC[C@@]2(C)[C@H]1CC[C@@]1(CO1)[C@@H]2C/C=C(/C=O)CC=O [aframodial]
IC50 [5]: 0.86 mg/L (≈ 2.7 µM)
fold increase in activity [5]: 10-11 fold

Compound: sodium antimony gluconate [Pentostam, reference compound]
concentration at which the isolate is sensitive, as Sb [2, 7]: 6 μg ml^−1 Sb
concentration at which the isolate is sensitive, as drug [2, 7]: 20 μg ml^−1 drug
